In PubChem BioAssay AID2060483 (Molecular Pharmacology Branch, DTP, NCI, 2025):
Where “and” joins values, the source holds several entries; their conditions need not be identical. Identical values can stand only once.

Tested on: K24384-001-R-PDC complex spheroids, viability
Assay: Anticancer human tumor K24384-001-R-PDC patient-derived pancreatic adenocarcinoma cell line growth inhibition [GQUAD]
Conditions: for viability, T/C: stronger effect = lower value
Description: DNA G-quadruplex Stabilizer Agents in Combinations in Complex Spheroids
A high-throughput screen of multi-cell type tumor spheroids was designed to identify active combinations of DNA G-quadruplex stabilizer agents and targeted small molecules. Complex spheroids include a stromal component modeled by human endothelial cells (HUVEC) and fibroblasts modeled by human mesenchymal stem cells (MSCs). The concentration ranges selected for each drug and investigational agent were based upon clinically achievable concentrations if the clinical Cmax of the agent was known.
Compounds. The drugs and investigational agents: pidnarulex (CX-5461; NSC782164), APTO-253 (NSC789042), BRACO-19 (NSC847499), peposertib (NSC802822), ceralasertib (NSC780249), elimusertib (NSC800525), camonsertib (NSC841442), AZD-1390 (NSC803789), olaparib (NSC753686), talazoparib (NSC767125), ART-558 (NSC835418), sotorasib (NSC818433), MRTX-1133 (NSC836407), SN-38 (NSC673596), topotecan (NSC609699), etoposide (NSC141540), doxorubicin (NSC123127), gemcitabine (NSC613327), 5-fluorouracil (NSC19893), paclitaxel (NSC125973), vemurafenib (NSC761431), panobinostat (NSC761190), R-306465 (JNJ-16241199; NSC773264), adavosertib (NSC754352), TP-3654 (NSC805149), carboplatin (NSC241240), KSQ-4279 (NSC840948), and staurosporine (NSC755774) were obtained from the National Cancer Institute (NCI) Developmental Therapeutics Program Chemical Repository (34). The FDA-approved anticancer drug set is available from the NCI Developmental Therapeutics Program. […] The stock solutions were prepared in dimethyl sulfoxide (DMSO, Sigma-Aldrich, St. Louis, MO, cat. D2650) at 800-fold the tested concentration and stored at -70 degrees C prior to their use. All drugs and investigational agents were tested over a range starting from a high concentration at or near the clinical Cmax and decreasing in half-log increments. If the clinical Cmax for an agent had not been determined, the highest concentration tested was 10 microM.
2.3 Cell Culture. All cells were maintained in an incubator at 37 degrees C and 5% CO2 with 95% humidity. The PDC lines were cultured according to standard operating procedures established by the NCI PDMR. All PDCs were thawed and cultured in Matrigel-coated flasks prepared with a working solution of 1X Ham's F-12 nutrient mix, without supplementation (Invitrogen, cat. 11765054), 100 U/mL penicillin-streptomycin (Invitrogen, cat. 15140122), and 2.5% Matrigel (Corning Inc., cat. 354248) for the first three passages. The 857933-349-R-J2-PDC line was cultured in 6C/Colon 1B media, which includes advanced DMEM/F-12 (Thermo Fisher Scientific, cat. 12634028), 10 mM HEPES (Thermo Fisher Scientific, cat. 15630080), 1X GlutaMAX supplement (Thermo Fisher Scientific, cat. 35050061), 0.1 mg/mL primocin (InvivoGen, cat. ant-pm-2), 10% defined fetal bovine serum, heat inactivated (HyClone Laboratories Inc., cat. SH30070.03HI), 50% L-WRN conditioned media (ATCC, cat. CRL-3276), 1.25 mM N-Acetyl-L-cysteine (Sigma-Aldrich, cat. A9165), 10 mM nicotinamide (Sigma-Aldrich, cat. N0636), 1X B-27 supplement (Thermo Fisher Scientific, cat. 17504044), 1X N-2 supplement (Thermo Fisher Scientific, cat. 17502048), 10 microM Y-27632 dihydrochloride (Tocris Bioscience, cat. 1254), and 50 ng/mL human EGF recombinant protein (Thermo Fisher Scientific, cat. PHG0311). The 485176-168-R4-J1-PDC line was cultured in Panc media, which includes all 6C/Colon 1B media components plus 100 ng/mL human FGF-10 (Thermo Fisher Scientific, cat. 100-26), 500 nM SB-431542 (Selleckchem, cat. S1067), and gastrin (Tocris, cat. 3006).
[…]

[1] = curve of first compound, second compound 0.0316 µM
[2] = curve of first compound, second compound 0.1 µM
[3] = curve of first compound, second compound 0.316 µM
[4] = curve of first compound, second compound 1 µM
[5] = curve of first compound, second compound 3.16 µM
[6] = curve of first compound, second compound 10 µM
[7] = second compound 0.0316 µM, first compound 0.0316 µM
[8] = second compound 0.0316 µM, first compound 0.1 µM
[9] = second compound 0.0316 µM, first compound 0.316 µM
[10] = second compound 0.0316 µM, first compound 1 µM
[11] = second compound 0.0316 µM, first compound 3.16 µM
[12] = second compound 0.0316 µM, first compound 10 µM
[13] = second compound 0.1 µM, first compound 0.0316 µM
[14] = second compound 0.1 µM, first compound 0.1 µM
[15] = second compound 0.1 µM, first compound 0.316 µM
[16] = second compound 0.1 µM, first compound 1 µM
[17] = second compound 0.1 µM, first compound 3.16 µM
[18] = second compound 0.1 µM, first compound 10 µM
[19] = second compound 0.316 µM, first compound 0.0316 µM
[20] = second compound 0.316 µM, first compound 0.1 µM
[21] = second compound 0.316 µM, first compound 0.316 µM
[22] = second compound 0.316 µM, first compound 1 µM
[23] = second compound 0.316 µM, first compound 3.16 µM
[24] = second compound 0.316 µM, first compound 10 µM
[25] = second compound 1 µM, first compound 0.0316 µM
[26] = second compound 1 µM, first compound 0.1 µM
[27] = second compound 1 µM, first compound 0.316 µM
[28] = second compound 1 µM, first compound 1 µM
[29] = second compound 1 µM, first compound 3.16 µM
[30] = second compound 1 µM, first compound 10 µM
[31] = second compound 3.16 µM, first compound 0.0316 µM
[32] = second compound 3.16 µM, first compound 0.1 µM
[33] = second compound 3.16 µM, first compound 0.316 µM
[34] = second compound 3.16 µM, first compound 1 µM
[35] = second compound 3.16 µM, first compound 3.16 µM
[36] = second compound 3.16 µM, first compound 10 µM
[37] = second compound 10 µM, first compound 0.0316 µM
[38] = second compound 10 µM, first compound 0.1 µM
[39] = second compound 10 µM, first compound 0.316 µM
[40] = second compound 10 µM, first compound 1 µM
[41] = second compound 10 µM, first compound 3.16 µM
[42] = second compound 10 µM, first compound 10 µM
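Note: spheroids exposed to compounds for seven days.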

Q: O=C(c1cc(Cc2n[nH]c(=O)c3ccccc23)ccc1F)N1CCN(C(=O)C2CC2)CC1 was tested. Which viability, T/C (compound 0.0316 µM) did it give?
A: 104% and 98.6% and 94.7%

Q: And the viability, T/C (compound 0.1 µM)?
A: 93.9% and 91.4% and 99.2%

Q: What about the viability, T/C (compound 0.316 µM) of the same compound?
A: 113% and 98.2% and 86.2%

Q: What about the viability, T/C (compound 1 µM) of the same compound?
A: 93.1% and 97.6% and 91%

Q: And the viability, T/C (compound 3.16 µM)?
A: 101% and 72.5% and 91.1%

Q: And the viability, T/C (compound 10 µM)?
A: 79.3% and 69.8% and 82.3%

Q: And the IC50 (curve of compound)?
A: > 10000 nM

Q: For COc1ncnc(C2CC2)c1-c1ncc2cnn(Cc3ccc(-c4nc(C(F)(F)F)cn4C(C)C)cc3)c2n1 + Cc1cnc(CNC(=O)c2c(=O)c3ccc(N4CCCN(C)CC4)nc3n3c2sc2ccccc23)cn1, which IC50 [1] is on record?
A: > 10000 nM

Q: And the IC50 [2]?
A: > 10000 nM

Q: And the IC50 [3]?
A: < 31.6 nM

Q: And the IC50 [4]?
A: < 31.6 nM

Q: What about the IC50 [5] of the same compound?
A: < 31.6 nM

Q: And the IC50 [6]?
A: < 31.6 nM

Q: What about the viability, T/C [7] of the same compound?
A: 85.9%

Q: What about the viability, T/C [8] of the same compound?
A: 90.3%

Q: What about the viability, T/C [9] of the same compound?
A: 78%

Q: And the viability, T/C [10]?
A: 84.6%

Q: And the viability, T/C [11]?
A: 69.1%

Q: What about the viability, T/C [12] of the same compound?
A: 94.5%

Q: And the viability, T/C [13]?
A: 46.1%

Q: And the viability, T/C [14]?
A: 71%

Q: What about the viability, T/C [15] of the same compound?
A: 71.6%

Q: And the viability, T/C [16]?
A: 52.2%

Q: And the viability, T/C [17]?
A: 57.4%

Q: What about the viability, T/C [18] of the same compound?
A: 79.5%

Q: And the viability, T/C [19]?
A: 44.5%

Q: What about the viability, T/C [20] of the same compound?
A: 43.5%

Q: And the viability, T/C [21]?
A: 43.3%

Q: And the viability, T/C [22]?
A: 43.2%

Q: What about the viability, T/C [23] of the same compound?
A: 65.1%

Q: What about the viability, T/C [24] of the same compound?
A: 46.4%

Q: What about the viability, T/C [25] of the same compound?
A: 43.6%

Q: What about the viability, T/C [26] of the same compound?
A: 46.7%

Q: What about the viability, T/C [27] of the same compound?
A: 41%

Q: What about the viability, T/C [28] of the same compound?
A: 44.7%

Q: What about the viability, T/C [29] of the same compound?
A: 42.9%

Q: And the viability, T/C [30]?
A: 36.1%

Q: And the viability, T/C [31]?
A: 31.5%

Q: And the viability, T/C [32]?
A: 34%

Q: What about the viability, T/C [33] of the same compound?
A: 33%

Q: And the viability, T/C [34]?
A: 42.1%

Q: What about the viability, T/C [35] of the same compound?
A: 39.1%

Q: And the viability, T/C [36]?
A: 29%

Q: What about the viability, T/C [37] of the same compound?
A: 24%

Q: What about the viability, T/C [38] of the same compound?
A: 13.7%

Q: And the viability, T/C [39]?
A: 23.1%

Q: And the viability, T/C [40]?
A: 20.8%

Q: What about the viability, T/C [41] of the same compound?
A: 17.1%

Q: And the viability, T/C [42]?
A: 0.33%

Q: For O=c1[nH]cc(F)c(=O)[nH]1 + Cc1cnc(CNC(=O)c2c(=O)c3ccc(N4CCCN(C)CC4)nc3n3c2sc2ccccc23)cn1, which IC50 [1] is on record?
A: 877 nM

Q: What about the IC50 [2] of the same compound?
A: > 10000 nM

Q: And the IC50 [3]?
A: < 31.6 nM

Q: And the IC50 [4]?
A: < 31.6 nM

Q: And the IC50 [5]?
A: < 31.6 nM

Q: And the IC50 [6]?
A: < 31.6 nM

Q: What about the viability, T/C [7] of the same compound?
A: 78.1%

Q: And the viability, T/C [8]?
A: 90.8%

Q: What about the viability, T/C [9] of the same compound?
A: 78.9%

Q: What about the viability, T/C [10] of the same compound?
A: 45.7%

Q: What about the viability, T/C [11] of the same compound?
A: 53.1%

Q: And the viability, T/C [12]?
A: 40%

Q: What about the viability, T/C [13] of the same compound?
A: 55.8%

Q: What about the viability, T/C [14] of the same compound?
A: 68.3%

Q: What about the viability, T/C [15] of the same compound?
A: 69.5%

Q: And the viability, T/C [16]?
A: 50.9%

Q: And the viability, T/C [17]?
A: 70.9%

Q: And the viability, T/C [18]?
A: 50.4%

Q: And the viability, T/C [19]?
A: 45.7%

Q: And the viability, T/C [20]?
A: 47.3%

Q: What about the viability, T/C [21] of the same compound?
A: 51.7%

Q: What about the viability, T/C [22] of the same compound?
A: 41.8%

Q: And the viability, T/C [23]?
A: 48.2%

Q: And the viability, T/C [24]?
A: 47%

Q: And the viability, T/C [25]?
A: 35.9%

Q: And the viability, T/C [26]?
A: 46.4%

Q: And the viability, T/C [27]?
A: 41.9%

Q: And the viability, T/C [28]?
A: 48.6%

Q: What about the viability, T/C [29] of the same compound?
A: 53.9%

Q: What about the viability, T/C [30] of the same compound?
A: 38.2%

Q: And the viability, T/C [31]?
A: 33.3%

Q: What about the viability, T/C [32] of the same compound?
A: 37%

Q: And the viability, T/C [33]?
A: 37.1%

Q: And the viability, T/C [34]?
A: 49.7%

Q: What about the viability, T/C [35] of the same compound?
A: 47.1%

Q: What about the viability, T/C [36] of the same compound?
A: 34%

Q: And the viability, T/C [37]?
A: 28.3%

Q: And the viability, T/C [38]?
A: 25.2%

Q: What about the viability, T/C [39] of the same compound?
A: 30.6%

Q: And the viability, T/C [40]?
A: 35.4%

Q: And the viability, T/C [41]?
A: 19.8%

Q: What about the viability, T/C [42] of the same compound?
A: 23.1%
